Laboratory results as given in PMC6154694, “Absorption, Metabolic Stability, and Pharmacokinetics of Ginger Phytochemicals” (Molecules : A Journal of Synthetic Chemistry and Natural …, 2017).

How the values were obtained:
[1] = pH dependent kinetic solubility in hydrochloride, citrate and phosphate buffers; type: physicochemical; details: 23 °C, kinetic from dmso stock, tested 10 to 100 µM, n = 2
Experimental: Calibration standards were prepared by spiking 5 μL of DMSO stock solutions into 995 μL acetonitrile/buffer (1:1) mixture. Following centrifugation (10,000 rpm, 10 min, 25 °C) the reaction samples were diluted 1:1 with acetonitrile.

[2] = Solubility and stability in simulated gastric fluid (SGF); type: in vitro ADME; details: pH 1.2, 37 °C, n = 2
Experimental: SGF and SIF were prepared as per USP method. Briefly, SGF was prepared by adding 2 g of sodium chloride and 3.2 g of pepsin with water and pH was adjusted to 1.2 ± 0.1 using hydrochloric acid (7 mL) and volume made up to 1 L. SIF was prepared by dissolving 6.8 g monobasic potassium phosphate and 10 g pancreatin in Milli-Q water (Millipore, Billerica, MA, USA). pH was adjusted to 6.8 ± 0.1 with sodium hydroxide solution and volume was made upto 1 L. Reactions were initiated by spiking DMSO stock solutions of GE phenolics 10 μL into 1990 μL of SGF and SIF incubated at 37 °C for 10 min. Samples (200 μL) were withdrawn at 0, 15, 30, and 60 min for SGF and at 0, 30, 60, and 120 min for SIF and quenched with 200 μL acetonitrile containing internal standard.

[3] = Liver microsomal stability, rat; type: in vitro ADME, IGS Sprague-Dawley rat; details: protein 0.5 mg/mL; for remaining at 0.5 h, 10 µM: IGS Sprague-Dawley, pooled liver microsomes, pH 7.4, substrate 10 µM, n = 2, read-out: % Remaining at 30 min; for Intrinsic Clearance: rat liver microsomes, substrate 10 µM, 45 mg protein/g liver
Experimental: (§1) Pooled liver microsomes from CD1 mouse, IGS Sprague-Dawley rat, Beagle dog, and mixed gender human were used for assays. Incubations (1 mL) consisted of liver microsomes (0.5 mg/mL), NADPH (1 mM) and 100 mM sodium phosphate buffer (pH 7.4). Following pre-incubation (10 min, 37 °C), reactions were initiated by spiking ACN/DMSO (80:20) stock solutions of GE phenolics (5 μL, 10 μM). Samples (100 μL) were withdrawn at 0, 5, 10, 15, 20 and 30 min and quenched with 200 μL acetonitrile containing internal standard. Concomitant NADPH-free control incubations were prepared similarly.

[4] = Liver microsomal stability, statements across species; type: in vitro ADME; details: CD1 (mouse), IGS Sprague-Dawley (rat), Beagle (dog), human, pooled liver microsomes, pH 7.4
Experimental: as §1

[5] = 100 mM citrate buffer, aqueous buffer, pH 4, citrate buffer
[6] = 100 mM phosphate buffer, aqueous buffer, pH 7.4, phosphate buffer
[7] = simulated gastric fluid, pH 2, hydrochloride buffer

solubility at 2 h [1, 5] [µM] | solubility at 2 h [1, 6] [µM] | solubility at 2 h [1, 7] [µM] | half-life at 10 µM [2] [h] | remaining at 0.5 h, 10 µM [3] [%] | Intrinsic Clearance [3] [mL/min/g Liver] | half-life at 10 µM [4] [h] | SMILES
< 10 | < 10 | < 10 | > 1 | 13 | 5.4 | – | CCCCCCCCCC(O)CC(=O)CCc1ccc(O)c(OC)c1 (centres unmarked) [10G, 10-gingerol]
< 10 | < 10 | < 10 | > 1 | 1 | 13.0 | < 0.5 | CCCCC/C=C/C(=O)CCc1ccc(O)c(OC)c1 [6S, 6-shogaol]
> 100 | > 100 | > 100 | > 1 | 50 | 11.2 | – | CCCCC[C@H](O)CC(=O)CCc1ccc(O)c(OC)c1 [6G, 6-gingerol]
> 100 | > 100 | > 100 | > 1 | 9 | 7.0 | < 0.5 | CCCCCCCC(O)CC(=O)CCc1ccc(O)c(OC)c1 (centres unmarked) [8G, 8-gingerol]
